What was measured:
KRAS-G12C/SOS1 = biological target: T1, KRAS-G12C/SOS1 (Homo sapiens, UniProt Q07889); assay: biochemical
T1 sequence (Q07889 564-1049): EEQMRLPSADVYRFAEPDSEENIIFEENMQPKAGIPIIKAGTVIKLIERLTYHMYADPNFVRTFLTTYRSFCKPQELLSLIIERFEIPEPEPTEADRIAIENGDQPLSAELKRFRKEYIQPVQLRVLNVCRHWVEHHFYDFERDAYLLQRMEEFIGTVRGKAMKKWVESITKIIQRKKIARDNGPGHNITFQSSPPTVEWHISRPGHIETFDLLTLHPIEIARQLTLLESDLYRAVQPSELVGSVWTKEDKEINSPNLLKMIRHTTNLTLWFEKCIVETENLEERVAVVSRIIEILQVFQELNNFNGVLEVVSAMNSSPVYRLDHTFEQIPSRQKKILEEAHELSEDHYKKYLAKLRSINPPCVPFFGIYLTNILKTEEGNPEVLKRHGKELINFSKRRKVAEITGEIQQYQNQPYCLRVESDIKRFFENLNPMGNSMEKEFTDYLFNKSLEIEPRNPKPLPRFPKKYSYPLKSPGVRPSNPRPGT

K562 cells = assay: Assay for proliferation inhibitory activity of K562 cells; format: cell-based; details: Homo sapiens, 72 h, CCK-8, read-out: K562 cell proliferation inhibition IC50
Experimental: Test Example 4 Assay for Proliferation Inhibitory Activity of K562 Cells
The K562 cell line can be purchased from the American Type Culture Collection (ATCC).
The K562 cells in a good growth state were added to a centrifuge tube with the cell density adjusted to 3×10^4/mL, and seeded on a 96-well plate (100 μL/well). The cells were cultured overnight in a cell incubator, the compound was loaded using a nanoliter pipettor to allow the final compound concentration to be 10000 nM to 4.6 nM, 2 replicate wells were set and control was set.

SOS1cat / KRAS G12C = biological target: T2, SOS1cat / KRAS G12C (Homo sapiens, UniProt Q07889); assay: Guanine nucleotide exchange test (HTRF); format: biochemical; details: SOS1cat-mediated loading of EDA-GTP-DY-647P1 on His-KRAS G12C, 20° C.; read-out: Nucleotide conversion of HTRF IC50
T2 sequence (Q07889 564-1049): T1 sequence (Q07889 564-1049)
Experimental: Test Example 2 Guanine Nucleotide Exchange Test
This test quantitatively investigates the ability of SOS to mediate KRAS activation. KRAS G12C with a His tag was added to the system, anti-His antibody labeled with lanthanide Eu was combined with the system, then auxiliary protein SOS1cat and GTP analogue EDA-GTP-DY-647P1 with fluorophore were added thereto, the GTP analogue with fluorophore was loaded on KRAS G12C with the assistance of the auxiliary protein, and then energy resonance transfer occurred between Anti-6HS-Cryptate (FRET donor) and EDA-GTP-DY-647P1 (FRET acceptor).
However, after pretreatment with SOS1 inhibitor compounds, the ability of SOS1 to bind and mediate KRAS activation was weakened, and the ability of FRET between donor and acceptor was weakened.
Test buffer was prepared with the following components: HEPES pH 7.4: 20 mM; NaCl: 150 mM; MgCl2: 0.5 mM; DTT: 2 mM; BSA: 0.05%; and Igepal: 0.0025%.
KRAS G12C working solution, SOS1cat working solution and blank control solution were prepared with the test buffers; wherein the KRAS G12C working solution contained 100 nM His-KRAS G12C and 2 nM […]; the SOS1cat working solution contained 20 nM SOS1cat and 200 nM EDA-GTP-DY-647P1; and the blank control solution contained 100 nM EDA-GTP-DY-647P1.
The whole test procedures were completed at 20° C.

Structure (SMILES)	IC50 (KRAS-G12C/SOS1)	IC50 (K562 cells)	IC50 (SOS1cat / KRAS G12C)
COc1cc2ncnc(N[C@H](C)c3cccc(C(F)F)c3F)c2cc1P1(=O)CCN(S(C)(=O)=O)CC1 [Example 29]	63 nM	320 nM	–
Cc1nc(N[C@H](C)c2cccc(C(F)(F)F)c2C)c2cc(P3(=O)CCOCC3)c(=O)n(C)c2n1 [Example 40]	179 nM	514 nM	–
Cc1nc(N[C@H](C)c2cccc(C(F)F)c2F)c2cc(P3(=O)CCN(C4COC4)CC3)ncc2n1 [Example 51]	100 nM	282 nM	–
Cc1nc(N[C@H](C)c2cccc(C(F)(F)F)c2)c2cc(P3(=O)CCN(C)CC3)ncc2n1 [Example 49]	–	2150 nM	1470 nM
COc1cc2nc(C)nc(N[C@H](C)c3cccc(C(F)(F)C(C)(C)O)c3)c2cc1P1(=O)CCOCC1 [Example 71]	35 nM	139 nM	–
CNCc1ccccc1-c1csc([C@@H](C)Nc2nc(C)nc3cnc(P4(=O)CCN(C(=O)C5CC5)CC4)cc23)c1 [Example 54]	–	84 nM	486 nM
COC(=O)N1CCP(=O)(c2cc3c(N[C@H](C)c4cccc(C(F)F)c4F)nc(C)nc3cn2)CC1 [Example 53]	–	93 nM	504 nM
Cc1nc(N[C@H](C)c2cccc3c(F)coc23)c2cc(P3(=O)CCN(S(C)(=O)=O)CC3)ccc2n1 [Example 61]	63 nM	421 nM	–
COc1cc2nc(C)nc(N[C@H](C)c3cccc(C(F)F)c3C)c2cc1P1(=O)CCOCC1 [Example 66]	79 nM	271 nM	–
Cc1nc(N[C@H](C)c2cccc3c2OCC3(F)F)c2cc(P3(=O)CCN(S(C)(=O)=O)CC3)ncc2n1 [Example 22]	63 nM	836 nM	–
Cc1nc(N[C@H](C)c2cc(N)cc(C(F)(F)F)c2)c2cc(P(C)(C)=O)c(O)cc2n1 [Example 44]	–	–	724 nM
[2H]C(C)(Nc1nc(C)nc2cnc(P3(=O)CCN(S(C)(=O)=O)CC3)cc12)c1cccc(C(F)(F)F)c1F (stereo not drawn) [Example 25]	86 nM	247 nM	–
Cc1nc(N[C@H](C)c2cc(N)cc(C(F)(F)F)c2C)c2cc(P3(=O)CCN(C(=O)C(C)(C)F)CC3)ncc2n1 [Example 60]	–	30 nM	433 nM
Cc1nc(N[C@H](C)c2cccc(C(F)(F)F)c2C)c2cc(P3(=O)CCN(S(C)(=O)=O)CC3)ccc2n1 [Example 62]	45 nM	155 nM	–
C[C@@H](Nc1ncnc2cnc(P3(=O)CCN(S(C)(=O)=O)CC3)cc12)c1cccc(C(C)(F)F)c1F [Example 64]	64 nM	281 nM	–
Cc1nc(N[C@H](C)c2cccc(C(F)(F)F)c2F)c2cc(P3(=O)CCOCC3)nc(C#N)c2n1 [Example 41]	180 nM	570 nM	–
CCP(=O)(CC)c1cc2c(N[C@H](C)c3cccc(C(F)F)c3F)nc(C)nc2cc1OC [Example 34]	612 nM	–	–
COc1cc2nc(C)nc(N[C@H](C)c3cccc(C(C)(F)F)c3F)c2cc1P1(=O)CCOCC1 [Example 69]	49 nM	310 nM	–
CC(=O)N1CCP(=O)(c2ccc3nc(Cl)nc(N[C@H](C)c4cccc(C(F)F)c4F)c3c2)CC1 [Example 33]	64 nM	250 nM	–
Cc1nc(N[C@H](C)c2cccc(C(C)(F)F)c2F)c2cc(P3(=O)CCN(CC4CC4)CC3)ncc2n1 [Example 50]	–	334 nM	456 nM
Cc1nc(N[C@H](C)c2cccc(C(C)(F)F)c2F)c2cc(P3(=O)CCN(S(C)(=O)=O)CC3)ncc2n1 [Example 23]	–	118 nM	283 nM
COc1cc2nc(C)nc(N[C@H](C)c3cccc(C(F)F)c3F)c2cc1P1(=O)CCN(S(C)(=O)=O)CC1 [Example 63]	38 nM	137 nM	–

Structure (SMILES)	IC50 (KRAS-G12C/SOS1)	IC50 (K562 cells)	IC50 (SOS1cat / KRAS G12C)
Cc1nc(N[C@H](C)c2cccc(C(F)F)c2F)c2cc(P3(=O)CCN(CC#N)CC3)ccc2n1 [Example 56]	88 nM	507 nM	–
COc1cc2nc(C)nc(N[C@H](C)c3cccc(C(F)(F)F)c3F)c2cc1P1(=O)CCOCC1 [Example 68]	90 nM	720 nM	–
COCCN1CCP(=O)(c2cc3c(N[C@H](C)c4cccc(C(F)(F)F)c4)nc(C)nc3cn2)CC1 [Example 48]	–	1570 nM	895 nM
COc1cc2nc(C)nc(N[C@H](C)c3cccc(C(F)(F)CO)c3)c2cc1P1(=O)CCOCC1 [Example 70]	44 nM	257 nM	–
C[C@@H](Nc1nc(CF)nc2cnc(P3(=O)CCN(S(C)(=O)=O)CC3)cc12)c1cccc(C(F)(F)F)c1F [Example 24]	–	177 nM	–
Cc1nc(N[C@H](C)c2cc(N)cc(C(F)(F)F)c2C)c2cc(P3(=O)CCN(C(=O)C4(F)CC4)CC3)ncc2n1 [Example 59]	–	21 nM	448 nM
Cc1nc(N[C@H](C)c2cccc(C(F)F)c2F)c2cc(P3(=O)CCOCC3)cc(F)c2n1 [Example 39]	103 nM	561 nM	–
COc1cc2nc(C)nc(N[C@H](C)c3cccc(C(F)(F)F)c3C)c2cc1P1(=O)CCOCC1 [Example 67]	71 nM	264 nM	–
COc1cc2nc(CF)nc(N[C@H](C)c3cccc(C(F)F)c3F)c2cc1P1(=O)CCN(C(C)=O)CC1 [Example 30]	68 nM	302 nM	–
Cc1nc(N[C@H](C)c2cccc(C(C)(F)F)c2F)c2cc(P3(=O)CCN(C(=O)C4CCC4)CC3)ncc2n1 [Example 52]	–	95 nM	455 nM
CC(=O)N1CCP(=O)(c2ccc3nc(CF)nc(N[C@H](C)c4cccc(C(F)F)c4F)c3c2)CC1 [Example 31]	129 nM	513 nM	–
Cc1nc(N[C@H](C)c2cc(N)cc(C(F)(F)F)c2C)c2cc(P3(=O)CCN(C(=O)C(C)C)CC3)ncc2n1 [Example 58]	–	31 nM	433 nM
Cc1nc(N[C@H](C)c2cccc(C(F)(F)F)c2F)c2cc(P3(=O)CCOCC3)ccc2n1 [Example 37]	97 nM	362 nM	–
Cc1nc(N[C@H](C)c2cccc(C(F)F)c2F)c2cc(P3(=O)CCOCC3)ncc2n1 [Example 35]	156 nM	574 nM	–
Cc1nc(N[C@H](C)c2cccc(C(F)F)c2F)c2cc(P3(=O)CCOCC3)ccc2n1 [Example 36]	94 nM	346 nM	–
CC(=O)N1CCP(=O)(c2cc3c(N[C@H](C)c4cccc(C(F)F)c4F)nc(CF)nc3cc2F)CC1 [Example 32]	90 nM	155 nM	–
Cc1nc(N[C@H](C)c2cccc(C(F)F)c2F)c2cc(P3(=O)CCOCC3)c(F)cc2n1 [Example 38]	115 nM	477 nM	–
Cc1nc(N[C@H](CF)c2cccc(C(F)(F)F)c2C)c2cc(P3(=O)CCN(S(C)(=O)=O)CC3)ccc2n1 [Example 26]	103 nM	–	–
COc1cc2ncnc(N[C@H](C)c3cccc(C(F)F)c3F)c2cc1P1(=O)CCN(C(C)=O)CC1 [Example 28]	50 nM	239 nM	–
Cc1nc(N[C@H](C)c2cccc(C(F)F)c2F)c2cc(P3(=O)CCN(CC(=O)N(C)C)CC3)ccc2n1 [Example 57]	204 nM	2170 nM	–
Cc1nc(N[C@H](C)c2cccc(C(F)(F)F)c2F)c2cc(P3(=O)CCN(S(C)(=O)=O)CC3)ncc2n1 [Example 19]	41 nM	206 nM	–
Cc1nc(N[C@H](C)c2cccc(C(F)F)c2F)c2cc(P3(=O)CCN(C(=O)N(C)C)CC3)ncc2n1 [Example 55]	87 nM	280 nM	–
